Active and inactive are the calls of the source.
Tests used:
[1] = target: Female germline-specific tumor suppressor gld-1 (Caenorhabditis elegans, UniProt Q17339); assay: blockers of GLD-1/TGE RNA complex formation – biochemical, fluorescence polarization, C. elegans, dose response (AID 2802);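 further: fluorescence polarization of labeled TGE RNA bound by purified gld-1 protein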
[2] = target: Protein Rev (Human immunodeficiency virus type 1 group M subtype B (isolate HXB2)(HIV-1), UniProt P04618); assay: blockers of HIV Rev/RRE RNA complex – biochemical, fluorescence polarization, HIV-1, dose response (AID 434976); parameters: species or system Human immunodeficiency virus 1
[3] = target: Transitional endoplasmic reticulum ATPase (Homo sapiens, UniProt P55072, C522A); assay: C522A mutant p97 ATPase inhibitors, dose response, counter-screen for p97 inhibitor project, biochemical, luminescence (AID 1544)
[4] = A cytotoxicity screen of small molecule inhibitors of the PhoP region in Salmonella typhi identified in the primary screen. [Related pubchem assays: 1850, 1864, 1985 ]; assay type: functional
[5] = target: T1, Histone-lysine N-methyltransferase NSD2 (Homo sapiens, UniProt O96028); assay type: biochemical
T1 sequence (O96028 whole entry): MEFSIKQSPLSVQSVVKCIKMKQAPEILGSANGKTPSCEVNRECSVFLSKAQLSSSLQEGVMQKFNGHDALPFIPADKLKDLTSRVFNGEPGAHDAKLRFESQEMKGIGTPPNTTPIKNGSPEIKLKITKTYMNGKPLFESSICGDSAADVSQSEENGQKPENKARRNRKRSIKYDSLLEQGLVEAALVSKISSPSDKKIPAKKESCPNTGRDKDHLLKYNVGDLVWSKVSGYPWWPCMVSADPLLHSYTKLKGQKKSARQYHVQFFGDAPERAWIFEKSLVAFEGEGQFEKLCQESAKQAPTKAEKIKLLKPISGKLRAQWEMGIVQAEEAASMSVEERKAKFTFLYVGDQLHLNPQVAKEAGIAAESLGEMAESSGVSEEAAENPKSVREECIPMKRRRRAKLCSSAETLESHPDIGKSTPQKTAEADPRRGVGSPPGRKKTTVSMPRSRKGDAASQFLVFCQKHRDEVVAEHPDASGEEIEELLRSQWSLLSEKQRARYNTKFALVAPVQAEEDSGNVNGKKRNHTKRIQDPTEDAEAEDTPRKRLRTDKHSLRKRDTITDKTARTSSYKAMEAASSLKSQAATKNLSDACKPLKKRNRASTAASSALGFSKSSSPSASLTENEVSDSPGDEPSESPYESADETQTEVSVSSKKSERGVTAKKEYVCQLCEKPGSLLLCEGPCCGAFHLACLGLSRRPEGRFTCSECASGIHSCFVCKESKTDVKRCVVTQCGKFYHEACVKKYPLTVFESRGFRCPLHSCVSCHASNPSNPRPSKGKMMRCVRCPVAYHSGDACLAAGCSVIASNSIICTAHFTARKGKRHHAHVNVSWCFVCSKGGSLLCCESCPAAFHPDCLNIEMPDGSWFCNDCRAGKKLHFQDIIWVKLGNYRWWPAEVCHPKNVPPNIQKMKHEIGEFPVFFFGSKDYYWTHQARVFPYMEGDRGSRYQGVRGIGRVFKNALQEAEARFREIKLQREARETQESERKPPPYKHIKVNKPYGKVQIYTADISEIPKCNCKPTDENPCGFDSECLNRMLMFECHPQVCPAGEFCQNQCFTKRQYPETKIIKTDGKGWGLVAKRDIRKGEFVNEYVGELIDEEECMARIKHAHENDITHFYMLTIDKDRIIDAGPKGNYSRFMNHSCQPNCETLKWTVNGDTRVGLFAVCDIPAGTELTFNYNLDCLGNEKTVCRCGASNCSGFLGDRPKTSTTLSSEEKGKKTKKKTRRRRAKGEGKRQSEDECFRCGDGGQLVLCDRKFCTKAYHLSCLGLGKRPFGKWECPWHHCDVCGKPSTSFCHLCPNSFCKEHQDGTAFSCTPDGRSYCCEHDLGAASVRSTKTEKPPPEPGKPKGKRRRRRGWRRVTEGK

[6] = system: HeLa; assay: viability loss in HeLa cells – cell-based, 24 h, cherry-picked samples, cytotoxicity control, dose response (AID 504726); assay type: functional; conditions: Homo sapiens;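 further: potency for cytotoxicity as loss of luminescence signal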
[7] = target: NS3 (Hepatitis C virus, UniProt A3EZJ3); assay: PubChem AID 2173; parameters: species or system Hepacivirus hominis
[8] = target: T2, Protein RecA (Mycobacterium tuberculosis, UniProt P9WHJ3); assay: Fluorescence Cell-Free Homogeneous Dose Retest to Identify Inhibitors of RecA-Intein Splicing Activity. [Related pubchem assays (depositor defined):AID2097, AID2223, AID489010, AID492950]; assay type: functional
T2 sequence (P9WHJ3 whole entry): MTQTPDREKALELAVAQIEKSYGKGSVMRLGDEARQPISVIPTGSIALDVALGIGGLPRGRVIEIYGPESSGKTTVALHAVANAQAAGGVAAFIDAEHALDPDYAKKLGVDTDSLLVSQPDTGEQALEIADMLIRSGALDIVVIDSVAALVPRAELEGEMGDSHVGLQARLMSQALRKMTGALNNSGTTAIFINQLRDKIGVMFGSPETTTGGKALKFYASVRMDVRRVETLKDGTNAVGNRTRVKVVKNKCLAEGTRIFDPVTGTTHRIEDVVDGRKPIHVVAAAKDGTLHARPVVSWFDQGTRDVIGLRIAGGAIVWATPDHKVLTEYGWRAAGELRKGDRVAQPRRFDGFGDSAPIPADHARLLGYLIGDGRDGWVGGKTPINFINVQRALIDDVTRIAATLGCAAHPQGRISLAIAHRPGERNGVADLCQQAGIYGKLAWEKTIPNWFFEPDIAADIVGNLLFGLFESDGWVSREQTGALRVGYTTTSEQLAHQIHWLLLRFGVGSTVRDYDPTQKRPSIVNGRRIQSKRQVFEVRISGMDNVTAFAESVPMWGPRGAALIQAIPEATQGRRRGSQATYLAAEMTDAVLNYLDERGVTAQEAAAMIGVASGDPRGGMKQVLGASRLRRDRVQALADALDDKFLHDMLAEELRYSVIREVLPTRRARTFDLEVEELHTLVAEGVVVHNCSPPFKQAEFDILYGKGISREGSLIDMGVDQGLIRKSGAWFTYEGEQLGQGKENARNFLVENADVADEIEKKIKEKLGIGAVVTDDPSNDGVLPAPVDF

[9] = target: Transitional endoplasmic reticulum ATPase (Homo sapiens, UniProt P55072); assay: p97 ATPase inhibitors, dose response, biochemical (AID 1534)
[10] = system: Salmon testes DNA; assay: acridine orange-DNA binding displacement – biochemical, fluorescence polarization, cherry-picked samples, set 2, artefact control for KSHV LANA DNA-binding inhibitor project, dose response (AID 504727); parameters: species or system Salmonidae

Chain of Protein Rev (P04618 whole entry): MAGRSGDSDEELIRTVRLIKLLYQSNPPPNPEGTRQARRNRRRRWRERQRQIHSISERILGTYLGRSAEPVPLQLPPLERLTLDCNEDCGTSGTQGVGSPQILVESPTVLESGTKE
Chain of Transitional endoplasmic reticulum ATPase (Homo sapiens, UniProt P55072) (P55072 whole entry): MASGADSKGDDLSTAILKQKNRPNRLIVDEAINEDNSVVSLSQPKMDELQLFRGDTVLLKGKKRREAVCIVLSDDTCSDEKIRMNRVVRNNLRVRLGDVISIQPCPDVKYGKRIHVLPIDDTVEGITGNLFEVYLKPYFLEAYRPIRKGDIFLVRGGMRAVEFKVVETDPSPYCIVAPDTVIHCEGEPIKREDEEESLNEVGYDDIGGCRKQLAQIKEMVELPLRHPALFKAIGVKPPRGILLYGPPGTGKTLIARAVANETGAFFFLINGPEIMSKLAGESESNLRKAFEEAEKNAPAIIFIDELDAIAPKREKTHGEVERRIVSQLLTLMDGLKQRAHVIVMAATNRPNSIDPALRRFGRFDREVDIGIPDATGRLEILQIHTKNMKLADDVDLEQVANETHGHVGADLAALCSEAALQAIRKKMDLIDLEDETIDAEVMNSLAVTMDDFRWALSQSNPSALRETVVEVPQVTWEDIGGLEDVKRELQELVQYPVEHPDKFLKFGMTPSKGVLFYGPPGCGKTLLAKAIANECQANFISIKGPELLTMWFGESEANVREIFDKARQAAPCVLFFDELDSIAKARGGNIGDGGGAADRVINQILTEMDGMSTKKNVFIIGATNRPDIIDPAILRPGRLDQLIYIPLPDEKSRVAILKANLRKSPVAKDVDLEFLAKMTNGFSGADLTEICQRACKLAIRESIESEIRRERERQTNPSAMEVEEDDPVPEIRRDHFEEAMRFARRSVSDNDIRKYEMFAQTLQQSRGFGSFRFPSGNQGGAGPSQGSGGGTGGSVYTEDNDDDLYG
Chain of Transitional endoplasmic reticulum ATPase (Homo sapiens, UniProt P55072, C522A) (P55072 2-806 C522A limits assumed): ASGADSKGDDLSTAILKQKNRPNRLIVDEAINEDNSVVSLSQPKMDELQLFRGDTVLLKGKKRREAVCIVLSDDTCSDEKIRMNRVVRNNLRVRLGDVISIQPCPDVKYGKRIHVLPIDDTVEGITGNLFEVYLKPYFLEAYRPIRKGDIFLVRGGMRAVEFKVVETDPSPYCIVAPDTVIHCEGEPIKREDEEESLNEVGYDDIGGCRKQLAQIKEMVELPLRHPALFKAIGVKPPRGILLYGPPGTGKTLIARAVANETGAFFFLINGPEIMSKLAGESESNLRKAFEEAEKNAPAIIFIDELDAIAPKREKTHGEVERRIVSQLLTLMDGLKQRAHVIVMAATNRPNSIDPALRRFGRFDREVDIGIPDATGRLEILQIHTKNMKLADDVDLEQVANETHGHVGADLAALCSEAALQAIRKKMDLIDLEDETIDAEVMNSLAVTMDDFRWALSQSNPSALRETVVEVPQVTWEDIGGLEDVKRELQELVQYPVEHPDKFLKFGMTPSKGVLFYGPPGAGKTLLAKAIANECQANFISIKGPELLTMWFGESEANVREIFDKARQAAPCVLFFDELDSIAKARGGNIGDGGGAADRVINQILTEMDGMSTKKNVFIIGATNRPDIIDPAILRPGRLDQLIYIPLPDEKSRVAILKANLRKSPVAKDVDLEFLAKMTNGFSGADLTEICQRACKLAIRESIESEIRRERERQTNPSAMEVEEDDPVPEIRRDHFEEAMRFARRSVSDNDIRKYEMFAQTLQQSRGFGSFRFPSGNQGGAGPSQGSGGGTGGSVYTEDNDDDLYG
Chain of NS3 (A3EZJ3 whole entry): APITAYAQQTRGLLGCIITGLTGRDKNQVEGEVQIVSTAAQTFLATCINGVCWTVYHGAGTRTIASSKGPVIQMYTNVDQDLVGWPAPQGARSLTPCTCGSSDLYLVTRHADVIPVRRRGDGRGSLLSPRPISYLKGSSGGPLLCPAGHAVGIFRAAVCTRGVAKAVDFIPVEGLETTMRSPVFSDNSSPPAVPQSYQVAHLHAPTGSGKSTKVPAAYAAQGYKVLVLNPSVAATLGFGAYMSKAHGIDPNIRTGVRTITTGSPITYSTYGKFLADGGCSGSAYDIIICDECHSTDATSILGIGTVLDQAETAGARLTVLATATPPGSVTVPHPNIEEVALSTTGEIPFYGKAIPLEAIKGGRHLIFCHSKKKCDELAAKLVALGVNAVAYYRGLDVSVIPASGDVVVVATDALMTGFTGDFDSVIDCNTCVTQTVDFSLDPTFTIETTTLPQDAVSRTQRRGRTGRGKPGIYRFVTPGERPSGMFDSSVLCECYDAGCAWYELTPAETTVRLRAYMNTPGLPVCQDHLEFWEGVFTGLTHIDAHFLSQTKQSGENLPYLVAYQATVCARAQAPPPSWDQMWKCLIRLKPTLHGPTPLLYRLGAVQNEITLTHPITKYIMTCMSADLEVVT
Chain of Female germline-specific tumor suppressor gld-1 (Q17339 whole entry): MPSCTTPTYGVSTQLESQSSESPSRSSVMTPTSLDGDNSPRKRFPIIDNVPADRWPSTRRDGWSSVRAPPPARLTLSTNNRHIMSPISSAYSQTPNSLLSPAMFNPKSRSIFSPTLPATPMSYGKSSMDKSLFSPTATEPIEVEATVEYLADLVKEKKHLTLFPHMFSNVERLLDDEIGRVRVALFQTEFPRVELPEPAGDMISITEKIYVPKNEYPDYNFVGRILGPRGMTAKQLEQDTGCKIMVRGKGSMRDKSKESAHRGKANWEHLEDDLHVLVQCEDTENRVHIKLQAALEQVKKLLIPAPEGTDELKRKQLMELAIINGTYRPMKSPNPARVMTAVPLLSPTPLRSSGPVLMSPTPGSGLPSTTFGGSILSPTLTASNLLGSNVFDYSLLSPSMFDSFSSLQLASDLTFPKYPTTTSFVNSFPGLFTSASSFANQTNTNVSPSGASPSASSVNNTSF

Compound	IC50 [1]	IC50 [2]	IC50 [3]	EC50 [4]	AC50 [5]	AC50 [6]	IC50 [7]	EC50 [8]	IC50 [9]	AC50 [10]
Nc1cccc2c1C(=O)N(Cc1cccc(Cl)c1)C2=O	4.97 µM (active)	17.9 µM (not active)	–	–	–	–	–	–	–	–
CCCCn1c(NS(=O)(=O)c2ccc(C)cc2)c(S(=O)(=O)c2ccccc2)c2nc3ccccc3nc21	–	–	> 50 µM (not active)	> 50 µM (active)	12.2 µM (active)	313 µM (active)	0.662 µM (active)	> 380 µM (inconclusive)	> 50 µM (not active)	43.7 µM (active)

Source: ChEMBL document CHEMBL1201862, “PubChem BioAssay data set” (2004)
